The record followed here is patent publication US4962109A, “Insecticidally and acaricidally active pyrimidine esters and intermediates therefor” (Imperial Chemical Industries PLC, priority 1985, dated 1990).

Read-outs that look alike come from different tables or passages of the source. Where only a bound is given, the exact number is not on record here.

Common to all, as to assay type: in vivo
In assay [1] the test system is Tetranychus urticae (spider mites - adult). Briefly: Contact test on spider mites - adult (TUa), French bean leaf, mortality. As to conditions: 72 h, read-out: TUa grading of mortality. In a few lines:
(§1)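 Product dissolved in acetone, diluted in water with 0.01% wetting agent to 500, 250 or 100 ppm; pests and/or host medium (plant or foodstuff) treated. Mortality or knockdown assessed 1–3 days later, graded A (80–100%), B (50–79%) or C (<50%).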

Assay [2] has as its system Tetranychus urticae (spider mites - ova). Briefly: Contact test on spider mites - ova (TUe), French bean leaf, mortality. Conditions: 144 h, read-out: TUe grading of mortality. In a few lines:
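Graded read-out: A 80-100%, B 50-79%, C below 50% mortality or knockdown, assessed usually 1-3 days post-treatment. Liquid preparations at 500, 250 or 100 ppm by weight, from acetone solution diluted in water with 0.01% wetting agent, applied to pests and/or their host plant or food medium.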

In assay [3] the test system is Myzus persicae (aphids). Description: Contact test on aphids (MP), Chinese Cabbage leaf, mortality. Conditions: 72 h, read-out: MP grading of mortality. In a few lines: as §1
Assay [4] concerns Nephotettix cincticeps (green leaf hopper - nymphs). Briefly: Contact test on green leaf hopper nymphs (NC), Rice plant, mortality. As to conditions: 48 h, read-out: NC grading of mortality. The essentials:
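Product dissolved in acetone, diluted in water with 0.01% wetting agent to 500, 250 or 100 ppm; nymphs and/or host rice plants treated. Mortality or knockdown assessed 1–3 days later, graded A (80-100%), B (50-79%), C (<50%).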

In assay [5] the test system is Musca domestica (houseflies - adults). Description: Knockdown test on houseflies - adults (MD/KD), Cotton wool/sugar. Conditions: 500 ppm, 4 hours, read-out: MD/KD grading of knockdown. In a few lines: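 Adult houseflies exposed to the compound at 500, 250 or 100 ppm in acetone/water with 0.01% wetting agent, on a cotton wool/sugar medium. Knockdown and mortality assessed, graded A (80-100%), B (50-79%) or C (<50%).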

Assay [6] shares this test system. Description: Contact test on houseflies - adults (MD), Cotton wool/sugar, mortality. As to conditions: 72 h, read-out: MD grading of mortality. In a few lines: as §1
Assay [7] concerns Blattella germanica (cockroach nymphs). Briefly: Contact test on cockroach nymphs (BG/C), Plastic pot, mortality. As to conditions: 48 h, read-out: BG/C grading of mortality. The essentials:
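Cockroach nymphs and/or their medium were treated with aqueous preparations at 500, 250 or 100 ppm (acetone solution diluted in water with 0.01% Lissapol NX wetting agent). Mortality or knockdown was assessed typically 1–3 days later and graded A (80–100%), B (50–79%) or C (<50%).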

Assay [8] deals with Heliothis virescens (tobacco budworm - larvae). Briefly: Residual test on tobacco budworm larvae (HV), Cotton leaf, mortality. As to conditions: 48 h, read-out: HV grading of mortality. In a few lines:
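Product in acetone diluted with water containing 0.01% Lissapol NX, at 500, 250 or 100 ppm; pests and/or host medium (here cotton leaf) treated. Mortality scored one to three days later, graded A (80-100%), B (50-79%), C (<50%).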

Assay [9] concerns Spodoptera exigua (lesser army worm - larvae). Briefly: Residual test on lesser army worm larvae (SP), Cotton leaf, mortality. Conditions: 48 h, read-out: SP grading of mortality. In a few lines:
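Product dissolved in acetone and diluted in water with 0.01% wetting agent to 500, 250 or 100 ppm; larvae and/or cotton leaf host treated. Mortality or knockdown scored one to three days later and graded A (80-100%), B (50-79%) or C (<50%).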

The subject of assay [10] is Diabrotica balteata (rootworm larvae). Briefly: Residual test on rootworm larvae (DB), Filter paper/maize seed, mortality. As to conditions: 48 h, read-out: DB grading of mortality. The essentials: as §1

In the case of `CC(C)(C)c1ncc([C@H](C(=O)O[C@H](c2cccc(Oc3ccccc3)n2)C(F)(F)F)C(C)(C)C)cn1` (racemic) [Compound 32, (RS)-1-(6-phenoxypyrid-2-yl)-2,2,2-trifluoroethyl (RS)-2-[2-(1,1-dimethylethyl)pyrimidin-5-yl]-3,3-dimethylbutanoate], the mortality at 500 ppm in [1] (500 ppm, contact, 3 days) was 80 to 100%; in assay [2] (500 ppm, contact, 6 days), 50 to 79%; in assay [3] (500 ppm, contact, 3 days), 80 to 100%; in assay [4] (500 ppm, contact, 2 days) it was 80 to 100%; in assay [6] (500 ppm, contact, 3 days), 80 to 100%; in assay [7] (500 ppm, contact, 2 days), < 50%. Besides, the mortality at 500 ppm in assay [8] lay in the range of 80 to 100%; in assay [9] (500 ppm, residual, 2 days) it was 80 to 100%; in assay [10] (500 ppm, residual, 2 days) it was 80 to 100%. Further, the pest or weed control at 500 ppm in assay [5] was 80 to 100%.

Take `CCOc1c(F)c(COC)c(F)c(F)c1COC(=O)C(c1cnc(C(C)(C)C)nc1)C(C)(C)C` (racemic) [Compound 185, 2,3,5-trifluoro-6-ethoxy-4-(methoxymethyl)benzyl (RS)-2-[2-(1,1-dimethylethyl)pyrimidin-5-yl]-3,3-dimethylbutanoate]: the mortality at 500 ppm in [1] (500 ppm, contact, 3 days) was 80 to 100%; in [2] (500 ppm, contact, 6 days), < 50%; in assay [3] (500 ppm, contact, 3 days) it was 80 to 100%; in assay [4] (500 ppm, contact, 2 days) it was 80 to 100%; in assay [6] (500 ppm, contact, 3 days) it was 50 to 79%; in [7] (500 ppm, contact, 2 days), < 50%. Besides, the mortality at 500 ppm in assay [8] is 80 to 100%; in assay [9] (500 ppm, residual, 2 days), 80 to 100%; in assay [10] (500 ppm, residual, 2 days) it was < 50%. For the same molecule, the pest or weed control at 500 ppm in [5] is 80 to 100%.

In the case of `CC(OC(=O)C(c1cnc(C2CC2)nc1)C(C)(C)C)c1cccc(Oc2ccccc2)n1` (racemic) [Compound 78, RS-1-(6-phenoxypyrid-2-yl)ethyl (RS)-2-(2-cyclopropylpyrimidin-5-yl)-3,3-dimethylbutanoate], the mortality at 500 ppm in assay [1] (500 ppm, contact, 3 days) was 80 to 100%; in [2] (500 ppm, contact, 6 days), 50 to 79%; in assay [3] (500 ppm, contact, 3 days) it was 80 to 100%; in [4] (500 ppm, contact, 2 days) it was 80 to 100%; in assay [6] (500 ppm, contact, 3 days) it was < 50%; in assay [7] (500 ppm, contact, 2 days), 50 to 79%. Besides, the mortality at 500 ppm in [8] fell in the range of 80 to 100%; in assay [9] (500 ppm, residual, 2 days) it was 80 to 100%; in assay [10] (500 ppm, residual, 2 days), 80 to 100%. For the same molecule, in assay [5], the pest or weed control at 500 ppm lay within 80 to 100%.

With `C[C@@H](OC(=O)[C@@H](c1cnc(C(C)(C)C)nc1)C(C)(C)C)c1cccc(Oc2ccc(Cl)cc2)n1` (racemic) [Compound 181, (RS)-1-[6-(4-chlorophenoxy)pyrid-2-yl]ethyl (RS)-2-[2-(1,1-dimethylethyl)pyrimidin-5-yl]-3,3-dimethylbutanoate], the mortality at 500 ppm in [1] (500 ppm, contact, 3 days) is 80 to 100%; in assay [2] (500 ppm, contact, 6 days), < 50%; in assay [3] (500 ppm, contact, 3 days) it was 80 to 100%; in assay [4] (500 ppm, contact, 2 days), 80 to 100%; in assay [6] (500 ppm, contact, 3 days), 80 to 100%; in [7] (500 ppm, contact, 2 days) it was < 50%. Also, the mortality at 500 ppm in [8] lay in the range of 80 to 100%; in assay [9] (500 ppm, residual, 2 days) it was 80 to 100%; in [10] (500 ppm, residual, 2 days) it was 80 to 100%. Further, the pest or weed control at 500 ppm in assay [5] was in the range of 80 to 100%.

Turning to `CC(C)c1ncc(C(C(=O)OCc2ccc(F)c(Oc3ccccc3)c2)C(C)(C)C)cn1` (racemic) [Compound 197, 4-fluoro-3-phenoxybenzyl (RS)-2-[2-(1-methylethyl)pyrimidin-5-yl]-3,3-dimethylbutanoate], the mortality at 500 ppm in assay [1] (500 ppm, contact, 3 days) was 80 to 100%; in assay [2] (500 ppm, contact, 6 days) it was 80 to 100%; in [3] (500 ppm, contact, 3 days), 80 to 100%; in assay [4] (500 ppm, contact, 2 days), 80 to 100%; in assay [6] (500 ppm, contact, 3 days) it was < 50%; in assay [7] (500 ppm, contact, 2 days) it was < 50%. The mortality at 500 ppm was in the range of 80 to 100% in assay [8]; 80 to 100% in assay [9] (500 ppm, residual, 2 days); 80 to 100% in [10] (500 ppm, residual, 2 days). Also, the pest or weed control at 500 ppm in assay [5] lay within 80 to 100%.

As for `CC[Si](CC)(CC)CCCc1c(F)c(F)c(COC(=O)C(c2cnc(C(C)(C)C)nc2)C(C)(C)C)c(F)c1F` (racemic) [Compound 218, 4-[3-(triethylsilyl)prop-1-yl]-2,3,5,6-tetrafluorobenzyl (RS)-2-[2-(1,1-dimethylethyl)pyrimidin-5-yl]-3,3-dimethylbutanoate], the mortality at 500 ppm in assay [1] is 80 to 100%; in assay [2] it was < 50%; in assay [3], 80 to 100%; in assay [4], 80 to 100%; in [6], < 50%; in assay [7], < 50%. Also, the mortality at 500 ppm in assay [8], in assay [9] and in assay [10] was < 50% throughout. In assay [5], the pest or weed control at 500 ppm was < 50%.

Consider `C=CC(C)(C)C(C(=O)OCc1c(F)c(F)c(COC)c(F)c1F)c1cnc(C(C)(C)C)nc1` (racemic) [Compound 211, 4-(methoxymethyl)-2,3,5,6-tetrafluorobenzyl (RS)-2-[2-(1,1-dimethylethyl)pyrimidin-5-yl]-3,3-dimethylpent-4-enoate], for which the mortality at 500 ppm in [1] (500 ppm, contact, 3 days) was 80 to 100%; in [2] (500 ppm, contact, 6 days), 80 to 100%; in assay [3] (500 ppm, contact, 3 days) it was 80 to 100%; in assay [4] (500 ppm, contact, 2 days) it was 80 to 100%; in assay [6] (500 ppm, contact, 3 days), < 50%; in assay [7] (500 ppm, contact, 2 days) it was < 50%. The mortality at 500 ppm is < 50% in assay [8]; 80 to 100% in assay [9] (500 ppm, residual, 2 days); < 50% in assay [10] (500 ppm, residual, 2 days). For the same molecule, in assay [5], the pest or weed control at 500 ppm lay in the range of 80 to 100%.

With `COCc1c(F)c(F)c(CSC(=O)C(c2cnc(C(C)(C)C)nc2)C(C)(C)C)c(F)c1F` (racemic) [Compound 195, 4-(methoxymethyl)-2,3,5,6-tetrafluorobenzyl (RS)-2-[2-(1,1-dimethylethyl)pyrimidin-5-yl]-3,3-dimethylbutanthioate], the mortality at 500 ppm in [1] (500 ppm, contact, 3 days) was 80 to 100%; in assay [2] (500 ppm, contact, 6 days) it was 80 to 100%; in assay [3] (500 ppm, contact, 3 days), 80 to 100%; in assay [4] (500 ppm, contact, 2 days), 80 to 100%; in [6] (500 ppm, contact, 3 days), < 50%; in assay [7] (500 ppm, contact, 2 days) it was < 50%. Moreover, the mortality at 500 ppm in assay [8] was 80 to 100%; in [9] (500 ppm, residual, 2 days) it was 80 to 100%; in assay [10] (500 ppm, residual, 2 days), 80 to 100%. Moreover, the pest or weed control at 500 ppm in assay [5] is < 50%.

As for `CSCc1c(F)c(F)c(COC(=O)C(c2cnc(C(C)(C)C)nc2)C(C)(C)C)c(F)c1F` (racemic) [Compound 169, 4-(methylthiomethyl)-2,3,5,6-tetrafluorobenzyl (RS)-2-[2-(1,1-dimethylethyl)pyrimidin-5-yl]-3,3-dimethylbutanoate], the mortality at 500 ppm in assay [1] (500 ppm, contact, 3 days) is 80 to 100%; in assay [2] (500 ppm, contact, 6 days), 80 to 100%; in assay [3] (500 ppm, contact, 3 days), 80 to 100%; in assay [4] (500 ppm, contact, 2 days) it was 80 to 100%; in [6] (500 ppm, contact, 3 days) it was 80 to 100%; in [7] (500 ppm, contact, 2 days) it was < 50%. Besides, the mortality at 500 ppm is < 50% in assay [8]; 80 to 100% in [9] (500 ppm, residual, 2 days); < 50% in assay [10] (500 ppm, residual, 2 days). For the same molecule, in assay [5], the pest or weed control at 500 ppm was 80 to 100%.

With `CCN(CC)Cc1c(F)c(F)c(COC(=O)C(c2cnc(C(C)(C)C)nc2)C(C)(C)C)c(F)c1F` (racemic) [Compound 176], the mortality at 500 ppm in assay [1] (500 ppm, contact, 3 days) is 80 to 100%; in assay [2] (500 ppm, contact, 6 days), < 50%; in [3] (500 ppm, contact, 3 days) it was 80 to 100%; in assay [4] (500 ppm, contact, 2 days), 80 to 100%; in [6] (500 ppm, contact, 3 days) it was 80 to 100%; in assay [7] (500 ppm, contact, 2 days) it was < 50%. The mortality at 500 ppm in assay [8] is 80 to 100%; in assay [9] (500 ppm, residual, 2 days), 80 to 100%; in [10] (500 ppm, residual, 2 days) it was < 50%. In addition, the pest or weed control at 500 ppm in [5] fell in the range of 80 to 100%.
